Test results reported in ChEMBL document CHEMBL4665735, “Discovery of a d-pro-lys peptidomimetic inhibitor of MMP9: Addressing the gelatinase selectivity beyond S1' subsite” (Bioorg Med Chem Lett, 2020).

What was measured:
[1] = molecular target: Matrix metalloproteinase-9 (Homo sapiens, UniProt P14780); experiment: Inhibition of MMP9 (unknown origin) using Mca-Lys-Pro-Leu-GlyLeu-Dpa-Ala-Arg-NH2 as substrate by fluorometric assay
[2] = molecular target: 72 kDa type IV collagenase (Homo sapiens, UniProt P08253); experiment: Inhibition of MMP2 (unknown origin) using Mca-Lys-Pro-Leu-GlyLeu-Dpa-Ala-Arg-NH2 as substrate by fluorometric assay
72 kDa type IV collagenase, sequence (P08253 whole entry): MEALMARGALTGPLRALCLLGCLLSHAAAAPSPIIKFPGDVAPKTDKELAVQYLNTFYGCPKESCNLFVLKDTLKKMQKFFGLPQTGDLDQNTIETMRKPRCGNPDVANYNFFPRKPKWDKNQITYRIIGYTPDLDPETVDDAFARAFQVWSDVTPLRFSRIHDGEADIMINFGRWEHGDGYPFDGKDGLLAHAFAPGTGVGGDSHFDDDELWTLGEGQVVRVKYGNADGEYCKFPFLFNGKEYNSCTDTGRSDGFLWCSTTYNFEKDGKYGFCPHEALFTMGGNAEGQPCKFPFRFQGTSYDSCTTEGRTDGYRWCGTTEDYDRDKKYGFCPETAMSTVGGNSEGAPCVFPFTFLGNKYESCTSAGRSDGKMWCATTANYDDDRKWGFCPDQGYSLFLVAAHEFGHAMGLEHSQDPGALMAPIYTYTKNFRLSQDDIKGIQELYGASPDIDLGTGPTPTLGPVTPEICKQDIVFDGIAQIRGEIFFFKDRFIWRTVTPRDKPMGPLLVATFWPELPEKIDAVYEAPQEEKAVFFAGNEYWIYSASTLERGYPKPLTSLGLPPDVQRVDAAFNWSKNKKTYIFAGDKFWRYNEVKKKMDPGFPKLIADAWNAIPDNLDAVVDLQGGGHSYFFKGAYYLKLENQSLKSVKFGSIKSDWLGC

Matrix metalloproteinase-9, sequence (P14780 whole entry): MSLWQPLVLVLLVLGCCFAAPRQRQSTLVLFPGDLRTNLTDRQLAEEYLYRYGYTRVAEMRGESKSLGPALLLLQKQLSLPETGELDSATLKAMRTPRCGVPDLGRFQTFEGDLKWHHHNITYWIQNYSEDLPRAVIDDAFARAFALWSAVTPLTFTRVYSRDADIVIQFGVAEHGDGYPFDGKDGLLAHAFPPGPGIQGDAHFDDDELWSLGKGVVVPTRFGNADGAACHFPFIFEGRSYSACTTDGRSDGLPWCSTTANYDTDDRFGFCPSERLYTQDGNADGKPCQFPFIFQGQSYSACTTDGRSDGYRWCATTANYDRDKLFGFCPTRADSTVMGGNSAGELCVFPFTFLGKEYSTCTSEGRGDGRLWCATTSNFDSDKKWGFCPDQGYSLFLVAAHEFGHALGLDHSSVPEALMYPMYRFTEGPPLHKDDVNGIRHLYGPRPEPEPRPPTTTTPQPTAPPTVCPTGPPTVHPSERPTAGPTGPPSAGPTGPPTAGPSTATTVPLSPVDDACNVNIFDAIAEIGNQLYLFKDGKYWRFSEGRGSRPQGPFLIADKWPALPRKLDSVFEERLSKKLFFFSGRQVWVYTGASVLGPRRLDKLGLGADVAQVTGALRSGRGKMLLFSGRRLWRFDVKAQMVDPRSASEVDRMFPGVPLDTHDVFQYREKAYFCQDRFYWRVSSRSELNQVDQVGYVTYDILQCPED

SMILES | IC50 [1] [nM] | IC50 [2] [nM]
COc1ccc(S(=O)(=O)N2C[C@H](NC(=O)[C@H](CCCN)NC(=O)OC(C)(C)C)C[C@@H]2C(=O)NO)cc1 | 3420 | 1320
COc1ccc(S(=O)(=O)N2C[C@H](NC(=O)C(C)(C)C)C[C@@H]2C(=O)NO)cc1 | 13 | 26
CCCC[C@H](N)C(=O)N[C@@H]1C[C@H](C(=O)NO)N(S(=O)(=O)c2ccc(OC)cc2)C1 | 98 | 62
CCCC[C@H](NC(=O)OC(C)(C)C)C(=O)N[C@@H]1C[C@H](C(=O)NO)N(S(=O)(=O)c2ccc(OC)cc2)C1 | 131 | 87
COc1ccc(S(=O)(=O)N2C[C@H](NC(=O)[C@@H](N)CCCN)C[C@@H]2C(=O)NO)cc1 | 154 | 15
COc1ccc(S(=O)(=O)N2C[C@H](NC(=O)CCCNC(=O)OC(C)(C)C)C[C@@H]2C(=O)NO)cc1 | 49 | 91
COc1ccc(S(=O)(=O)N2CCC[C@@H]2C(=O)NO)cc1 | 22 | 
COc1ccc(S(=O)(=O)N2C[C@H](NC(=O)CCCN)C[C@@H]2C(=O)NO)cc1 | 53 | 302
COc1ccc(S(=O)(=O)N2C[C@H](NC(=O)[C@H](CCCCN)NC(=O)OC(C)(C)C)C[C@@H]2C(=O)NO)cc1 | 27 | 432
COc1ccc(S(=O)(=O)N2C[C@H](NC(=O)[C@@H](N)CCCCN)C[C@@H]2C(=O)NO)cc1 | 5.7 | 1260
